For data set [1], the system named is HBV. In words: Anti-HBV activity in transfected 2.2.15 cells (HBV DNA replication intermediates, blot hybridization). It counts as cell-based, hepatitis B virus. The settings on record: read-out: EC50 (μM) R.I. The method, then: The antiviral evaluations were performed on two separate passages of cells, two cultures per passage (4 cultures total). All wells, in all plates, were seeded at the same density and at the same time.
Due to the inherent variations in the levels of both intracellular and extracellular HBV DNA, only depressions greater than 3.0-fold (for HBV virion DNA) or 2.5-fold (for HBV DNA replication intermediates) from the average levels for these HBV DNA forms in untreated cells are generally considered to be statistically significant [P<0.05] (Korba and Gerin, Antiviral Res. 19: 55-70, 1992). The levels of integrated HBV DNA in each cellular DNA preparation (which remain constant on a per cell basis in these experiments) were used to calculate the levels of intracellular HBV DNA forms, thereby eliminating technical variations inherent in the blot hybridization assays.
Typical values for extracellular HBV virion DNA in untreated cells range from 50 to 150 pg/ml culture medium (average of approximately 76 pg/ml). Intracellular HBV DNA replication intermediates in untreated cells range from 50 to 100 pg/ug cell DNA (average approximately 74 pg/ug cell DNA). In general, depressions in the levels of intracellular HBV DNA due to treatment with antiviral compounds are less pronounced, and occur more slowly, than depressions in the levels of HBV virion DNA.
For reference, the manner in which the hybridization analyses were performed for these experiments results in an equivalence of approximately 1.0 pg intracellular HBV DNA/ug cellular DNA to 2-3 genomic copies per cell and 1.0 pg of extracellular HBV DNA/ml culture medium to 3×10^5 viral particles/ml.
The test compounds were used in the form of stock solutions in DMSO (frozen on dry ice). Daily aliquots of the test samples were made and frozen at −20° C. so that each individual aliquot would be subjected to a single freeze-thaw cycle. The daily test aliquots were thawed, suspended into culture medium at room temperature and immediately added to the cell cultures.
The ability of the active compounds to inhibit the growth of virus in 2.2.15 cell cultures (HepG2 cells transformed with hepatitis virion) was evaluated.

Data set [2] deals with Normal Hep G2 cells. Briefly: Cytotoxicity by uptake of neutral red dye. It counts as cell-based. The method, then:
(§1) Toxicity analyses were performed in order to assess whether any observed antiviral effects were due to a general effect on cell viability. This can be assessed by the uptake of neutral red dye, a standard and widely used assay for cell viability in a variety of virus-host systems, including HSV (herpes simplex virus) and HIV.
(§2) Toxicity analyses were performed in 96-well flat bottomed tissue culture plates. Cells for the toxicity analyses were cultured and treated with test compounds with the same schedule as used for the antiviral evaluations. Each compound was tested at 4 concentrations, each in triplicate cultures. Uptake of neutral red dye was used to determine the relative level of toxicity. The absorbance of internalized dye at […] (A510) was used for the quantitative analysis. Values are presented as a percentage of the average A510 values (±standard deviations) in 9 separate cultures of untreated cells maintained on the same 96-well plate as the test compounds.

Data set [3] relates to CFU-GM. Briefly: Human bone marrow clonogenic assay, CFU-GM. It counts as cell-based. The settings on record: effect on cell growth.
Data set [4] concerns BFU-E. Briefly: Human bone marrow clonogenic assay, BFU-E. In kind it is cell-based. Conditions: effect on cell growth.
The test system of data set [5] is Normal Hep G2 cells. Conditions: neutral red dye uptake; typically observed in these assays (Korba and Gerin 1992); cited from earlier work.
Data set [6] in a line: Cytotoxicity by uptake of neutral red dye. In kind it is cell-based. Conditions: human, Normal Hep G2 cells. The method, then: as §1, §2
Setting [7] is: Transfected 2.2.15 cells, HBV DNA replication intermediates (R.I.).

SMILES strings stand for the structures. Where two headings read alike, the source gives them in different places. Where only a bound is given, the exact number is not on record here.

Consider `Nc1ccn([C@@H]2CS[C@H](CO)O2)c(=O)n1` (single isomer, unassigned) [Lamivudine (3TC), (−)-enantiomer of cis-2-hydroxymethyl-5-(cytosin-1-yl)-1,3-oxathiolane], for which the concentration for a half-maximal effect (EC50) in data set [1] (setting [7]) was determined as 0.03 µM.
As for `Nc1nc(=O)n([C@H]2CC[C@@H](CO)O2)cc1F` [Compound L-5-FddC], the EC50 in data set [1] (setting [7]) was 0.05 µM; in data set [3] it was 1200 nM; in data set [4], 1800 nM. Also, in data set [2], the CC50 was greater than 200000 nM.
In the case of `Nc1ccn([C@H]2CC[C@@H](CO)O2)c(=O)n1` [D-ddC, 2′,3′-dideoxycytidine], the EC50 in data set [3] came to 700 nM; in data set [4] it was 50 nM. Further, the “concentration giving a 2-fold reduction in dye uptake versus untreated cultures” value in data set [5] is 150 to 190 µM.
As for `[N-]=[N+]=N[C@H]1C[C@H](CO)O[C@@H]1n1cc(F)c(N)nc1=O` [L-2-azido-5-FddC, 1-(2,3-Dideoxy-2-azido-β-L-erythro-pentofuranosyl)-5-fluorocytosine], the EC50 in data set [1] (Hepatitis B virus) is 0.1 µM; in data set [3], greater than 10000 nM; in data set [4] it was greater than 10000 nM. This compound gave a CC50 in data set [6] greater than 200000 nM.
Take `[N-]=[N+]=NC1C[C@@H](n2cc(F)c(N)nc2=O)O[C@H]1CO` (stereo partly drawn) [L-3-azido-5-FddC, β-L-(3′-azido)-2′,3′-dideoxy-5-fluorocytidine]: the EC50 in data set [1] (Hepatitis B virus, Transfected 2.2.15 cells, HBV DNA replication intermediates (R.I.)) was 0.01 µM; in data set [3], 10000 nM; in data set [4], 10000 nM. This compound also yielded a CC50 in data set [6] greater than 200000 nM.
As to `Cc1cn([C@H]2C[C@H](N=[N+]=[N-])[C@@H](CO)O2)c(=O)[nH]c1=O` [Zidovudine (AZT), 3′-azido-3′-deoxythymidine], the EC50 in data set [3] came to 1900 nM; in data set [4] it was 600 nM.
